According to ChEMBL document CHEMBL1126722, “Potent nonpeptide angiotensin II receptor antagonists. 2. 1-(Carboxybenzyl)imidazole-5-acrylic acids” (J Med Chem, 1993):

What was measured:
[1] = target: T1, Angiotensin II receptor (Rattus norvegicus, UniProt P29089+P25095+P35351); assay: Inhibition of [125I]AII binding to Angiotensin II receptor, type 1 of rat mesenteric arteries; assay type: protein assay
T1 sequence (P29089 whole entry): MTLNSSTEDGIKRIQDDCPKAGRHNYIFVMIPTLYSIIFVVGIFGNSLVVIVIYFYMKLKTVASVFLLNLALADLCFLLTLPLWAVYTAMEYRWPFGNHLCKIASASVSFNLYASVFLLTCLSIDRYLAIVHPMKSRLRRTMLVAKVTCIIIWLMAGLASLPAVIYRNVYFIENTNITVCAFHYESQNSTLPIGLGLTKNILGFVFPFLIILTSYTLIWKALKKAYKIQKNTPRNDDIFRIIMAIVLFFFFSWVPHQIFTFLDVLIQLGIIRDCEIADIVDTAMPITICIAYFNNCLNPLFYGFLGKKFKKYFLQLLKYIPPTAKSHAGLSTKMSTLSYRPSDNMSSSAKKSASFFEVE
T1 sequence (P25095 whole entry): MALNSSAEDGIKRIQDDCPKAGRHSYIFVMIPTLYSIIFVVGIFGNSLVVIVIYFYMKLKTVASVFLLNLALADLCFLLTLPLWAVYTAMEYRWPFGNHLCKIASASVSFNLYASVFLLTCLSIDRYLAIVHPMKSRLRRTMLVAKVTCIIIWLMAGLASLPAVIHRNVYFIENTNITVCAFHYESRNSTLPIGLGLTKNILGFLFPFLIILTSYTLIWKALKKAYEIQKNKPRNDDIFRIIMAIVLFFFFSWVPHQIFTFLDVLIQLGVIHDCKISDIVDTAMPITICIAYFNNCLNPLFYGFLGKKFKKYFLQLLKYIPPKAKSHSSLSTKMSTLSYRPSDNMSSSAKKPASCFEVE
T1 sequence (P35351 whole entry): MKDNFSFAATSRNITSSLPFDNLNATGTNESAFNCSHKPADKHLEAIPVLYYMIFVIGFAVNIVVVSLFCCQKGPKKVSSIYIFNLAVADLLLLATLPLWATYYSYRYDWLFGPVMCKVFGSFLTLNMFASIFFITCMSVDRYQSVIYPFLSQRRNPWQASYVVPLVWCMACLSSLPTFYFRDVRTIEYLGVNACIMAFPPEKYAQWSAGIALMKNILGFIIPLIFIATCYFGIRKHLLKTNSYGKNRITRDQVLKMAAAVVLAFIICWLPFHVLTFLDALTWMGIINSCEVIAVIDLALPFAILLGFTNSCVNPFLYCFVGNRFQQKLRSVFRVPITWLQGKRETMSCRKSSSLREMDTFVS

[2] = target: Angiotensin II receptor (Rattus norvegicus) (UniProt P29089+P25095+P35351); assay: In vivo inhibition of pressor response to angiotensin II in conscious normotensive rats; assay type: functional, organism-based

| IC50 [1] [µM] | ID50 [2] [mg/kg] | Compound |
| --- | --- | --- |
| 0.0942 |  | CCCCc1ncc(/C=C(\Cc2cccs2)C(N)=O)n1Cc1ccc(C(N)=O)cc1 |
| 0.0336 |  | CC(C)CCc1ncc(/C=C(\Cc2cccs2)C(=O)O)n1Cc1ccc(C(=O)O)cc1 |
|  | > 3 | CCCCc1ncc(C/C(=C/c2cccs2)C(=O)O)n1Cc1ccc(C(=O)O)cc1 |
| 0.063 |  | CCCCc1ncc(/C=C(\Cc2cccs2)C(=O)O)n1CCc1ccc(C(=O)O)cc1 |
| 0.06 | 0.84 | CCCCc1ncc(/C=C(\Cc2cccs2)C(=O)O)n1Cc1ccc(CC(=O)O)cc1 |
| 6 |  | CCCCc1ncc(/C=C(\Cc2cccs2)C(=O)O)n1Cc1ccccc1C(=O)O |
| 0.00481 |  | CCCCc1ncc(/C=C(\Cc2cccs2)C(=O)NCC(=O)O)n1Cc1ccc(C(=O)O)cc1 |
| 0.00059 | 0.15 | CCCCc1ncc(/C=C(\Cc2cccs2)C(=O)O)n1Cc1ccc(C(=O)O)c(O)c1 |
|  | 0.08 | CCCCc1ncc(/C=C(\Cc2cccs2)C(=O)O)n1Cc1ccc(C(=O)O)cc1 (stereo in doubt; 2) |
| 0.248 |  | CCCCc1cnc(/C=C(\Cc2cccs2)C(=O)O)n1Cc1ccc(C(=O)O)cc1 |
| 0.118 |  | CCCCc1ncc(/C=C(\Cc2cccs2)C(=O)O)n1Cc1ccc(C#N)cc1 |
| 0.0276 |  | CCCCc1ncc(/C=C(\Cc2cccs2)C(=O)O)n1Cc1ccc(C(=O)OCC)cc1 |
| 0.00015 | 0.06 | CCCCc1ncc(/C=C(\Cc2cccs2)C(=O)O)n1Cc1ccc(C(=O)O)cc1[N+](=O)[O-] |
| 0.001 | 0.12 | CCCCc1ncc(/C=C(\Cc2cccs2)C(=O)O)n1Cc1ccc(C(=O)O)c(Cl)c1 |
|  | 0.24 | CCCCc1ncc(/C=C(\CCc2cccs2)C(=O)O)n1Cc1ccc(C(=O)O)cc1 |
| 0.005 | 0.16 | CCCc1ncc(/C=C(\Cc2cccs2)C(=O)O)n1Cc1ccc(C(=O)O)cc1 |
| 0.163 | 2 | CC(C)Cc1ncc(/C=C(\Cc2cccs2)C(=O)O)n1Cc1ccc(C(=O)O)cc1 |
| 0.62 |  | CCCCc1ncc(/C=C(\Cc2cccs2)C(=O)O)n1Cc1ccc([N+](=O)[O-])cc1 |
| 0.0045 | > 3 | CCCCc1ncc(/C=C(\Cc2cccs2)C(=O)O)n1Cc1ccc(S(N)(=O)=O)cc1 |
| 0.0033 |  | CCCCc1ncc(/C=C(\Cc2cccs2)C(=O)O)n1Cc1cccc(C(=O)O)c1 |
| 0.039 |  | CCCCc1ncc(/C=C(\Cc2cccs2)C(=O)O)n1Cc1ccc(C(=O)OC)cc1 |
| 0.00056 |  | CCCCc1ncc(/C=C(\Cc2cccs2)C(=O)O)n1Cc1ccc(C(N)=O)cc1 |
| 0.00145 | 0.06 | CCCCc1ncc(/C=C(\Cc2cccs2)C(=O)O)n1Cc1ccc(C(=O)O)cc1Cl |
| 0.25 |  | CCCCc1ncc(/C=C(\Cc2cccs2)C(=O)O)n1-c1ccc(C(=O)O)cc1 |
| 0.0008 | 0.6 | CCCCCCc1ncc(/C=C(\Cc2cccs2)C(=O)O)n1Cc1ccc(C(=O)O)cc1 |
| 0.021 |  | CCCCc1ncc(/C=C(\Cc2cccs2)C(N)=O)n1Cc1ccc(C(=O)O)cc1 |

The next lines start with the molecule.

| Compound | IC50 [1] [µM] | ID50 [2] [mg/kg] |
| --- | --- | --- |
| CCCCc1ncc(/C=C(\Cc2cccs2)C(=O)O)n1Cc1ccccc1Cl |  | 3.6 |
| CCCCc1ncc(/C=C(\Cc2cccs2)C(=O)O)n1Cc1ccc(-c2ccccc2C(=O)O)cc1 | 0.0066 | 0.62 |
| CCCCc1ncc(/C=C(\Cc2ccccc2)C(=O)O)n1Cc1ccc(C(=O)O)cc1 | 0.00426 |  |
| CCCCc1ncc(/C=C(\Cc2cccs2)c2nn[nH]n2)n1Cc1ccccc1Cl | 0.31 | 8 |
| CCCCc1ncc(/C=C(/C(=O)O)C(C)(C)c2cccs2)n1Cc1ccc(C(=O)O)cc1 | 0.416 |  |
| CCCCc1ncc(/C=C(\Cc2cccs2)c2nn[nH]n2)n1Cc1ccccc1C(F)(F)F |  | 8 |
| CCCCc1ncc(/C=C(\CC2CCCS2)C(=O)O)n1Cc1ccc(C(=O)O)cc1 (centres undefined) | 0.0338 |  |
| CCCc1ncc(/C=C(\Cc2cccs2)C(=O)O)n1Cc1ccccc1Cl | 0.127 | 8.1 |
| CCCCc1ncc(/C=C(\Cc2cccs2)C(=O)O)n1Cc1ccccc1 | 4.53 |  |
| CCCCc1ncc(/C=C(\Cc2cccs2)c2nn[nH]n2)n1Cc1ccc(C(=O)O)cc1 | 0.0003 | 0.7 |
| CCCCc1ncc(/C=C(\Cc2cccs2)C(=O)O)n1Cc1ccc(O)c(C)c1 | 0.021 |  |
| CCCCc1ncc(/C=C(\Cc2cccs2)C(=O)O)n1Cc1cccc(Cl)c1Cl | 0.046 | 2.8 |
| CCCCc1ncc(/C=C(\Cc2cccs2)C(=O)O)n1Cc1ccccc1[N+](=O)[O-] | 0.031 | 2.6 |
| CCCCc1ncc(/C=C(\Cc2cccs2)c2nn[nH]n2)n1Cc1cccc(Cl)c1Cl | 1.3 | 8 |
| CCCCc1ncc(/C=C(\Cc2cccs2)C(=O)O)n1Cc1ccccc1C(F)(F)F | 0.26 | 3.4 |
| CCCCc1ncc(/C=C/C(=O)O)n1Cc1ccc(C(=O)O)cc1 | 0.391 |  |
| CCCCc1ncc(/C=C(\Cc2cccs2)c2nn[nH]n2)n1Cc1ccccc1[N+](=O)[O-] | 0.23 | 3.5 |
| CCCCc1ncc(CC(Cc2cccs2)C(=O)O)n1Cc1ccc(C(=O)O)cc1 (centres undefined) | 0.053 | 0.24 |

| Compound | IC50 [1] [µM] | ID50 [2] [mg/kg] |
| --- | --- | --- |
| CCCCc1ncc(/C=C(\Cc2cccs2)C(=O)O)n1Cc1cccc([N+](=O)[O-])c1 | 0.21 | 7 |
| CCCCc1ncc(/C=C(\Cc2cccs2)C(=O)O)n1Cc1cccc(OC)c1[N+](=O)[O-] | 0.13 |  |
| CCCCc1ncc(/C=C(\Cc2cccs2)C(=O)O)n1Cc1ccc(-c2nn[nH]n2)cc1 | 0.0004 | 0.2 |
| CCCC/C(=C\c1cnc(CCCC)n1Cc1ccc(C(=O)O)cc1)C(=O)O |  | 0.33 |
| CCCCc1ncc(/C=C(\Cc2cccs2)C(=O)O)n1Cc1ccccc1OC | 7.35 | 15 |
| CCCCc1ncc(/C=C(\Cc2cccs2)C(=O)O)n1Cc1ccccc1O | 0.034 |  |
| CCCCc1ncc(/C=C(\Cc2cccs2)C(=O)O)n1Cc1ccccc1C#N | 0.022 |  |
| CCCCc1ncc(/C=C(\Cc2cccs2)C(=O)O)n1Cc1cccc(OC)c1 | 0.18 | 8 |
| CCCc1cccc(/C=C(\Cc2cccs2)C(=O)O)c1Cc1ccc(C(=O)O)cc1 | > 0.01 |  |
| CCCCc1ncc(/C=C(\Cc2cccs2)C(=O)O)n1Cc1cc(Cl)c(C(=O)O)cc1Cl | 0.035 | 0.68 |
| CCCCCCc1ncc(/C=C(\Cc2cccs2)C(=O)O)n1Cc1ccccc1Cl | 0.123 | 5.7 |
| CCCc1ncc(/C=C(\Cc2cccs2)C(=O)O)n1Cc1ccccc1[N+](=O)[O-] | 0.015 |  |
| CCCCc1ncc(/C=C(\Cc2cccs2)C(=O)OCC)n1Cc1ccc(C(=O)OCC)cc1 | 1.27 |  |
| CCCCc1ncc(/C=C(\Cc2cccs2)C(=O)O)n1Cc1ccc(C(=O)O)c(-c2ccccc2)c1 | 0.0025 | 0.18 |
| CC/C=C/c1ncc(/C=C(\Cc2cccs2)C(=O)O)n1Cc1ccccc1Cl | 0.57 |  |
| CCCCc1ncc(/C=C(\Cc2cccs2)C(=O)O)n1Cc1ccc(OC)c(C)c1 | 0.066 |  |
| CCCCCCc1ncc(/C=C(\Cc2cccs2)C(=O)O)n1Cc1ccccc1[N+](=O)[O-] | 0.043 |  |
| CCCCc1ncc(/C=C(\Cc2cccs2)C(=O)O)n1Cc1ccc(C(=O)O)c(C(=O)O)c1 | 0.0046 | 0.12 |
